Key:
gastric acid secretion = assay: Inhibitory effect on pentagastrin-stimulated gastric acid secretion in anesthetized rat (perfused stomach, Schild method); type: in vivo, rat (Sprague Dawley); details: intraduodenal (i.d.), 0.5% M.C. suspension
Text: Anti-acid secreting function of carbamoylmethylurea derivative (I) of the present invention has been confirmed by the in vivo experiment (cf. Schild Method; Experiment 1 below). […] From the results of these experiments, it is apparent that the carbamoylmethylurea derivative (I) has an anti-acid secreting function, and is an excellent gastrin receptor antagonist and/or CCK-B receptor antagonist which has enough functional separativeness from CCK-A receptor.
Experiment 1 In Vivo Test
Evaluation of Inhibitory Effect on Gastric Acid Secretion by Child Method
Twenty four hour starved (ad libitum for water) male Sprague Daily rats (8-week-old) were anesthetized with urethane (1.5 g/kg S.C.) and kept breathing with esophagus cannulas. After laparotomy, esophagus cannulas were inserted orally up to proventriculus and ligated around gastric cardiac. Perfusion cannulas were inserted from duodenum into stomach and ligated around pylorus. Another cannulas were placed into duodenum and ligated for administration of drug. After sutra of abdomen, stomach was perfused via the esophagus cannulas with physiological saline (37° C.) while collecting perfusate for a 15 min interval. The perfusate was subjected to titration with 0.001N NaOH solution to determine the acidity. When the basal acid secretion became stable, pentagastrin ([…])was administered in a sustained manner via common carotid vein for about 90 min until the acid secretion reached approximately the highest level, when a test compound (0.5% M.C. suspension) was administered into duodenum through cannulas. The perfusate was collected for a 15 min interval to monitor the acid secretion for 90 min. The percent inhibition was calculated as follows:
Percent inhibition (%)=100×(A-B)/(C-B)
A: the minimum value of total acidity observed after the administration of a test compound;
B: the total acidity obtained immediately before the administration of pentagastrin; and
C: the total acidity obtained immediately before the administration of a test compound.

CCK-B receptor = target: T1, CCK-B receptor (Mus musculus, UniProt P56481); assay: CCK-B receptor antagonism: displacement of [3H]CCK-8 from crude membrane of cerebral cortex; type: binding, mouse (male ddY); details: [3H]CCK-8 1 nM, 90 min, 25° C.
T1 construct: crude membrane specimen from mouse cerebral cortex; from tissue; host or cells: cerebral cortex of male ddY mice, crude membranes
T1 sequence (P56481 1-453): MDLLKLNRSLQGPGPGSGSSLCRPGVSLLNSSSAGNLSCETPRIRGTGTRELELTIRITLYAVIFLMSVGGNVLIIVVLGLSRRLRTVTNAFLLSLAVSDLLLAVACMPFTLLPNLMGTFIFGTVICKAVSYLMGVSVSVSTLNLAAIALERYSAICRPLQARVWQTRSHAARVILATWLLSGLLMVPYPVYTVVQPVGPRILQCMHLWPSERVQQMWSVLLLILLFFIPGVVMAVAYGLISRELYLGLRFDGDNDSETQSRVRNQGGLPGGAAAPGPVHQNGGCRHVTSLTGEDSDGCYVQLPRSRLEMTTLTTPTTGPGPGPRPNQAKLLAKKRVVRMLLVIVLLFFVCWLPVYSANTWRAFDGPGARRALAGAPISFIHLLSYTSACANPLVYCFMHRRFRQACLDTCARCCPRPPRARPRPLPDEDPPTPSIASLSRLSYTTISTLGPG
Description: (§1) The pharmacological effect of compounds (I) prepared in Examples above were evaluated in vitro with respect to antagonistic activity against gastrin receptor, CCK-B receptor or CCK-A receptor, using fundic gland cells of guinea pig, crude membrane specimen from mouse cerebral cortex, or crude membrane specimen from mouse pancreas, respectively.
(§2) Male Hartley guinea pig (450-600 g) or male ddY mouse (24-30 g) were used.
(§3) (2) CCK-A Receptor Antagonism and CCK-B Receptor Antagonism Preparation of CCK receptor preparations Male ddY mice (24 to 30 g) were killed by decapitation and cerebral cortex (CCK-B) and pancreas (CCK-A) were extracted immediately. Each of cerebral cortex and pancreas was mixed with 50 mM Tris-HCl buffer (pH 7.4) and homogenized with a teflon-glass homogenizer and polytron homogenizer to obtain crude membrane specimens.
(§4) Preparation of test compounds and procedures of displacing assay
(§5) A 1M solution of a compound to be tested in DMSO is prepared and diluted with 50% DMSO to obtain a ten-fold dilution series.
(§6) The reaction is initiated by the addition of crude membrane specimen to solutions of different concentration each containing [^3 H]CCk-8 (final concentration, 1 nM). The mixture is incubated for 90 min at 25° C., filtered through glass filter with aspiration and washed with a cooled 50 mM Tris buffer. After the addition of Aquazol-2 cocktail the radioactivity is counted. The same procedure was repeated using 50% DMSO solution or Ceruletide (final concentration, 1 μM) instead of a solution of test compound so as to obtain the control value regarding total binding or the value regarding non-specific binding, respectively.
(§7) The IC50 was determined by plotting the ratio (%) of specific binding of a test compound to that of control on semilogarithmic graph and obtaining the concentration corresponding to 50%, wherein: specific binding of control=total binding (cpm)--non-specific binding (cpm); and specific binding of test compound=total binding (cpm)--non-specific binding (cpm).

CCK-A receptor = target: T2, CCK-A receptor (Mus musculus, UniProt O08786); assay: CCK-A receptor antagonism: displacement of [3H]CCK-8 from crude membrane of pancreas; type: binding, mouse (male ddY); details: [3H]CCK-8 1 nM, 90 min, 25° C.
T2 construct: crude membrane specimen from mouse pancreas; from tissue; host or cells: pancreas of male ddY mice, crude membranes
T2 sequence (O08786 1-436): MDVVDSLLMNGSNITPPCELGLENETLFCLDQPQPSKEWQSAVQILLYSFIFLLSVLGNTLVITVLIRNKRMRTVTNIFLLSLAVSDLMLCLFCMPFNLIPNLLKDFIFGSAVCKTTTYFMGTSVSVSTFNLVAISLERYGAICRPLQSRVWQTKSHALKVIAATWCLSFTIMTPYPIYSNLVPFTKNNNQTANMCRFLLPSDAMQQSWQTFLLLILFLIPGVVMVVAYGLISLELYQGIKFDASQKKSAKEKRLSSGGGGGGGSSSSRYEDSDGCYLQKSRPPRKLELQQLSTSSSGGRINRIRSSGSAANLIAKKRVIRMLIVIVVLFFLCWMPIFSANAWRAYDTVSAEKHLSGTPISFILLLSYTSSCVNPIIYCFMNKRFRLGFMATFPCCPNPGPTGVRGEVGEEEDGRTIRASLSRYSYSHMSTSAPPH
Description: as §1, §2, §3, §4, §5, §6, §7

gastrin receptor = target: T3, gastrin receptor (Cavia porcellus, UniProt H0VZC5); assay: Gastrin receptor antagonism: displacement of 125I-labeled gastrin from gastric glands; type: binding, guinea pig (male Hartley); details: guinea pig fundic gastric glands; 125I-gastrin 0.2 nM; 30 min, 25° C.
T3 construct: stomach was extracted from each animal immediately, from which gastric glands were prepared; from tissue; host or cells: gastric (fundic) glands of male Hartley guinea pigs
T3 sequence (H0VZC5 1-426): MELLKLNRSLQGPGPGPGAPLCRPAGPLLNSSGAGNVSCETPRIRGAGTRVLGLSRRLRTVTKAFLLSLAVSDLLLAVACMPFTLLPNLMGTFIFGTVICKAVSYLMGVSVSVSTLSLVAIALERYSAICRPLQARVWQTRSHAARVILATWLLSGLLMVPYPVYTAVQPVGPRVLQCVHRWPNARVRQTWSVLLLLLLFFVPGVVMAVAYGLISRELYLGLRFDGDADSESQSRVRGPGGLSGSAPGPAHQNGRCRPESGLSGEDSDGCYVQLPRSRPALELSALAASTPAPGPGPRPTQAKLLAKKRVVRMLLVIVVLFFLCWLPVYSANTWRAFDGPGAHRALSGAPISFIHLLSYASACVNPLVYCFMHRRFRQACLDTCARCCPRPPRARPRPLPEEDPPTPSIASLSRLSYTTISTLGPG
Description: as §1, §2
(1) Gastrin Receptor Antagonism
Preparation of gastric glands
Male Hadley guinea pigs (450-600 g) were killed by bleeding and stomach was extracted from each animal immediately, from which gastric glands were prepared.
Preparation of test compounds and procedures of displacing assay A 1M solution of a compound to be tested in DMSO is prepared and diluted with 50% DMSO to obtain a ten-fold dilution series.
The reaction is initiated by the addition of gastric glands to solutions of different concentration each containing ^125 I-labeled gastrin (final concentration, 0.2 nM). The mixture is incubated for 30 min at 25° C., centrifuged at 2000 rpm for 5 min and the supernatant is removed by aspiration. To the pellet is added ice-cooled incubation buffer and mixed gently, followed by an immediate centrifugation and removal of the supernatant by aspiration. The radioactivity is counted on gamma counter. The same procedure was repeated using 50% DMSO solution or human gastrin I (final concentration, 2 μM) instead of a solution of test compound so as to obtain the control value regarding total binding or the value regarding non-specific binding, respectively.
as §7

SMILES	ED50 (gastric acid secretion; Rattus norvegicus)	IC50 (CCK-B receptor)	IC50 (CCK-A receptor)	IC50 (gastrin receptor)	ED50 (gastric acid secretion)	Inhibitory Effect on acid secretion in rat ED50, i.d. (gastric acid secretion)
CC(C)(C)OC(=O)CN(C(=O)CNC(=O)Nc1cccc(C(F)(F)F)c1)c1ccccc1C(=O)C1CCCCC1 [Compound 15b, Cyclohexyl-(2-(N-(t-butoxycarbonylmethyl)-N-(N'-(m-trifluoromethylphenyl)ureidomethylcarbonyl)amino)phenyl)ketone]	0.026 mg/kg	6 nM	1150 nM	5 nM	–	–
Cc1cccc(NC(=O)N[C@@H]2N=C(c3ccccc3)c3ccccc3N(CC(=O)c3ccccc3C)C2=O)c1 [YM-022, reference compound]	–	2 nM	100 nM	2 nM	0.107 mg/kg	–
CC(C)(C)OC(=O)CN(C(=O)CNC(=O)Nc1cccc(C(=O)O)c1)c1ccccc1C(=O)c1ccccc1 [Compound 8h]	–	64 nM	5000 nM	4 nM	–	0.014 mg/kg

— US5739162A, “Carbamoylmethylurea derivatives” (Shionogi & Co., Ltd., priority 1994, dated 1998)
